# Laboratory results published in patent publication US11291643B2, “Methods of treating hypertriglyceridemia” (Amarin Pharmaceuticals Ireland Limited, priority 2011, dated 2022).
# Test system: patients with fasting triglyceride levels ≥500 mg/dL
# Experiment: 12-week placebo-controlled double-blind clinical study: fasting lipid parameters
# Assay type: in vivo, human
# Protocol: A multi-center, placebo-controlled randomized, double-blind, 12-week study with an open-label extension was performed to evaluate the efficacy and safety of AMR101 in patients with fasting triglyceride levels ≥500 mg/dL. The primary objective of the study was to determine the efficacy of AMR101 2 g daily and 4 g daily, compared to placebo, in lowering fasting TG levels in patients with fasting TG levels ≥500 mg/dL and ≤1500 mg/dL (≥5.65 mmol/L and ≤16.94 mmol/L). The population for this study was men and women (women of childbearing potential needed to be on contraception or practice abstinence) >18 years of age with a body mass index ≤45 kg/m^2 who were not on lipid-altering therapy or are currently on lipid-altering therapy. Patients currently on statin therapy (with or without ezetimibe) were evaluated by the investigator as to whether this therapy could be safely discontinued at screening, or if it should be continued. If statin therapy (with or without ezetimibe) was to be continued, dose(s) must be stable for ≥4 weeks prior to randomization. Patients taking non-statin, lipid-altering medications (niacin >200 mg/day, fibrates, fish oil, other products containing omega-3 fatty acids, or other herbal products or dietary supplements with potential lipid-altering effects), either alone or in combination with statin therapy (with or without ezetimibe), must have been able to safely discontinue non-statin, lipid-altering therapy at screening. Approximately 240 patients were sought to be randomized at approximately 50 centers in North America, South America, Central America, Europe, India, and South Africa. The study was be a 58- to 60-week, Phase 3, multi-center study consisting of 3 study periods: (1) A 6- to 8-week screening period that included a diet and lifestyle stabilization and washout period and a TG qualifying period; (2) A 12-week, double-blind, randomized, placebo-controlled treatment period; and (3) A 40-week, open-label, extension period. After confirmation of qualifying fasting TG values, eligible patients entered a 12-week, randomized, double-blind treatment period. At Visit 4 (Week 0), patients were randomly assigned to 1 of the following treatment groups: • AMR101 2 g daily, • AMR101 4 g daily, or • Placebo. Eligible patients were randomly assigned at Visit 4 (Week 0) to receive orally AMR101 2 g daily, AMR101 4 g daily, or placebo for the 12-week double-blind treatment period. AMR101 was provided in 1 g liquid-filled, oblong, gelatin capsules. The matching placebo capsule was filled with light liquid paraffin and contained 0 g of AMR101. During the double-blind treatment period, patients took 2 capsules (AMR101 or matching placebo) in the morning and 2 in the evening for a total of 4 capsules per day. Patients in the AMR101 2 g/day treatment group received 1 AMR101 1 g capsule and 1 matching placebo capsule in the morning and in the evening. Patients in the AMR101 4 g/day treatment group received 2 AMR101 1 g capsules in the morning and evening. The primary efficacy variable for the double-blind treatment period was percent change in TG from baseline to Week 12 endpoint. […]
structure (smiles),measurement,setting,value
"CC/C=C\C/C=C\C/C=C\C/C=C\C/C=C\CCCC(=O)OCC [AMR101, ethyl eicosapentaenoate]","Apo B median percent change, AMR101 2 g/day vs. Placebo","2 g/day vs placebo, 12 weeks",−2.6%
same,"HDL-C median percent change, AMR101 2 g/day vs. Placebo","2 g/day vs placebo, 12 weeks",1.5%
same,"LDL-C median percent change, AMR101 2 g/day vs. Placebo","2 g/day vs placebo, 12 weeks",5.2%
same,"Lp-PLA2 median percent change, AMR101 2 g/day vs. Placebo","2 g/day vs placebo, 12 weeks",−5.1%
same,"Non-HDL-C median percent change, AMR101 2 g/day vs. Placebo","2 g/day vs placebo, 12 weeks",−8.1%
same,"TC median percent change, AMR101 2 g/day vs. Placebo","2 g/day vs placebo, 12 weeks",−6.8%
same,"TG median percent change, AMR101 2 g/day vs. Placebo","2 g/day vs placebo, 12 weeks",−19.7%
same,"VLDL-C median percent change, AMR101 2 g/day vs. Placebo","2 g/day vs placebo, 12 weeks",−15.3%
same,"VLDL-TG median percent change, AMR101 2 g/day vs. Placebo","2 g/day vs placebo, 12 weeks",−17.3%
same,Apo B median percent change from baseline,"2 g/day, 12 weeks",2.1%
same,HDL-C median percent change from baseline,"2 g/day, 12 weeks",0.0%
same,LDL-C median percent change from baseline,"2 g/day, 12 weeks",−2.5%
same,Lp-PLA2 median percent change from baseline,"2 g/day, 12 weeks",−5.1%
same,Non-HDL-C median percent change from baseline,"2 g/day, 12 weeks",0.0%
same,TC median percent change from baseline,"2 g/day, 12 weeks",0.7%
same,TG median percent change from baseline,"2 g/day, 12 weeks",−7.0%
same,VLDL-C median percent change from baseline,"2 g/day, 12 weeks",0.0%
same,VLDL-TG median percent change from baseline,"2 g/day, 12 weeks",−6.4%
same,"Apo B median percent change, AMR101 4 g/day vs. Placebo","4 g/day vs placebo, 12 weeks",−8.5%
same,"HDL-C median percent change, AMR101 4 g/day vs. Placebo","4 g/day vs placebo, 12 weeks",−3.6%
same,"LDL-C median percent change, AMR101 4 g/day vs. Placebo","4 g/day vs placebo, 12 weeks",−2.3%
same,"Lp-PLA2 median percent change, AMR101 4 g/day vs. Placebo","4 g/day vs placebo, 12 weeks",−13.6%
same,"Non-HDL-C median percent change, AMR101 4 g/day vs. Placebo","4 g/day vs placebo, 12 weeks",−17.7%
same,"TC median percent change, AMR101 4 g/day vs. Placebo","4 g/day vs placebo, 12 weeks",−16.3%
same,"TG median percent change, AMR101 4 g/day vs. Placebo","4 g/day vs placebo, 12 weeks",−33.1%
same,"VLDL-C median percent change, AMR101 4 g/day vs. Placebo","4 g/day vs placebo, 12 weeks",−28.6%
same,"VLDL-TG median percent change, AMR101 4 g/day vs. Placebo","4 g/day vs placebo, 12 weeks",−25.8%
same,Apo B median percent change from baseline,"4 g/day, 12 weeks",−3.8%
same,HDL-C median percent change from baseline,"4 g/day, 12 weeks",−3.5%
same,LDL-C median percent change from baseline,"4 g/day, 12 weeks",−4.5%
same,Lp-PLA2 median percent change from baseline,"4 g/day, 12 weeks",−17.1%
same,Non-HDL-C median percent change from baseline,"4 g/day, 12 weeks",−7.7%
same,TC median percent change from baseline,"4 g/day, 12 weeks",−7.3%
same,TG median percent change from baseline,"4 g/day, 12 weeks",−26.6%
same,VLDL-C median percent change from baseline,"4 g/day, 12 weeks",−19.5%
same,VLDL-TG median percent change from baseline,"4 g/day, 12 weeks",−25.2%
same,Reduction of median apolipoprotein B compared with placebo,"4 g/day, previously reported, stated as reduction",8.5%
